Assay results taken from patent US11123398B2, “Chemotherapeutic combinations of cationic antimicrobial peptides and chemotherapeutics” (LYTIX BIOPHARMA AS, priority 2014, dated 2021).
Non-standard residues stand in square brackets, D forms with d. Residues, ends and D or L forms follow the SMILES beside them. Dip = N[C@H](C(=O)O)C(c1ccccc1)c1ccccc1

Legend:
[1] = test system: murine A20 B cell lymphoma cells; assay: Re-challenge with A20 B-cell lymphoma in mice with complete regression; assay type: in vivo, Balb-c mice
Description: Methods: Female Balb-c mice (n=4), previously treated with LTX-315, 1 mg) or (n=9); previously treated with LTX-315 0.5 or 1 mg) were re-inoculated (s.c. in the abdominal area) with either murine A20 B cell lymphoma cells or CT26WT colon carcinoma cells (5 million) respectively 6 weeks following initial treatment with LTX-315. Tumour growth was monitored for up to 36 days following re-inoculation.

MCF-7/mdr = assay: MTS cytotoxicity assay, MCF-7/mdr; assay type: cell-based, human; conditions: IC50 resistant / IC50 sensitive line; doxorubicin resistance
Description: Tumor cells were plated in 96-well flat-bottom microtitration plates (Nunc, Dutscher, Brumath, France) and incubated at 37° C. for 24 hours before treatment in 190 μl of drug-free culture medium supplemented or not with 10% FBS for adherent or suspension growing cell lines, respectively.
The adherent cell lines were washed once with 200 μl FBS-free culture medium before treatment. Tumor cells were incubated for 4 hours with 10 concentrations of compounds in ¼ dilution step with a top dose of 400 μM (range 4×10^−4 to 4×10^−10 M), with 1% (final concentration) Triton X-100 as positive control and FBS-free culture medium as negative control. The cells (190 μl) were incubated in a 200 μl final volume of FBS-free culture medium containing test substances at 37° C. under 5% CO2.
Three independent experiments were performed, each concentration being tested in quadruplicate. Control cells were treated with vehicle alone. At the end of treatments, the cytotoxic activity was evaluated by a MTS assay (see § 3.3.).
Like MTT, MTS is bioreduced by cells into a formazan product that is directly soluble in culture medium without processing, unlike MTT.
At the end of the cells treatment, 40 μl of a 0.22 μm filtered freshly combined solution of MTS (20 ml at 2 mg/ml, Ref G1111, Batch 235897, Exp March 2009, Promega, Charbonnières, France) and PMS (1 ml at 0.92 mg/ml, Ref P9625, Batch 065K0961, Sigma) in Dulbecco's Phosphate Buffered Saline (DPBS, Ref 17-513Q, Batch 6MB0152, Cambrex), were added in each well. Culture plates were incubated for 2 h at 37° C. Absorbency (OD) were measured at 490 nm in each well using VICTOR^3™ 1420 multilabeled counter (Wallac, PerkinElmer, Courtaboeuf, France).
IC50: drug concentration to obtain a 50% inhibition of cell proliferation.
The dose-response curves were plotted using XLFit 3 (IDBS, United Kingdom). The IC50 determination values were calculated using the XLFit 3 software from semi-log curves. Individual IC50 determination values as well as mean and SD values were generated.
Resistance index was calculated using the following formula: […]
Resistance index was calculated for each compound for each couple of sensitive and resistant cell lines. Individual resistance index was calculated when IC50 values of both sensitive and corresponding resistant cell lines were determined within same experiment. In addition, resistance index was also calculated ratio of mean IC50 values obtained during three independent experiments.

[2] = test system: murine A20 B-cell lymphoma; assay: Adoptive spleen cell transfer, A20 lymphoma model; assay type: in vivo, Balb/c mice; conditions: donors: 1 mg intratumoural once daily for 3 days
Description: […] Balb/c mice (n=32) were each inoculated with A20 cells (5 million in 50 μL s.c.) on the abdominal surface. Once tumours had reached 20 mm^2 they were injected with LTX-315 (1 mg) injected intratumourally, once daily for 3 days, in a volume of 50 μL. Tumour size (mm^2) and body weight were subsequently monitored and a further injection of LTX-315 was given if any tumour re-growth was observed. Subsequently, mice showing complete tumour regression were sacrificed and used as donors for transfer of splenocytes while naive donor mice were used as controls. Spleens from donor mice were excised and cells isolated. Naive receiver mice were irradiated and divided into 2 groups. Group 1 received isolated splenocytes from cured mice, whereas group 2 received isolated splenocytes from naive mice. Freshly prepared cells were injected (20×106 per 100 μl) via the tail vein. Twenty four hours later receiver mice were inoculated with 5 million murine A20 B-cell lymphoma cells on the abdominal surface as described above. Tumour size and body weight were monitored until the maximum tumour burden of ˜125 mm^2 was reached, or a serious adverse events occurred (i.e. wound formation due to tumour tissue necrosis) at which point mice were sacrificed.

A375 cells [3] = assay: Release of cytochrome-C (ELISA); assay type: cell-based, human; conditions: 35 μM, 5, 15, 45 min
Description: A375 cells were seeded as with HMGB1 studies, and treated with 35 μM for different time points (5, 15, 45). Supernatants were collected and concentrated as with HMGB1 studies, and samples from the supernatants were analyzed using a 4.5 hour solid form Cytochrome C—Elisa kit (R&D Systems, USA, #DCTCO) following the manufacturer's description. Shortly thereafter, a 50% diluted sample was analyzed and the optical density was determined using a microplate reader set at 450 nm, and this reading was then subtracted from the reading at 540 nm. A standard curve was generated for each set of samples assayed. Samples were run in four parallels, and the cytochrome-c released into the supernatant was expressed as a fold over the level of cytochrome-c in the supernatant of untreated cells.

A375 cells [4] = assay: Confocal microscopy with fluorescence-labeled peptide (internalization); assay type: cell-based, human; conditions: 3 μM and 1.5 μM, 30-60 min
Description: Subconfluential A375 cells were seeded at 8,000 cells/well as above, and transfected on the second day using the Lipofectamine LTX with Plus transfection reagents (Invitrogen) following the manufacturer's protocol. The mitochondria were labeled using the pDsRed2-Mito, and the nucleus was labeled using the GFP-Histon2B plasmid (Imaging Platform, University of Tromsø). A day after transfection, cells were washed twice with serum-free RPMI, and treated at different concentration and incubation periods with LTX-315 Pacific Blue or LTX-328 Pacific Blue. […] Control cells were treated with unlabeled LTX-315 and also with serum-free RPMI only. After incubation, cells were fixed with 4% paraformaldehyde in PBS, and the wells were covered with Prolong Gold antifade (Invitrogen). Cells were further analyzed by use of a Leica TCS SP5 confocal microscope, with a […] objective. Pacific Blue, GFP and Ds Red were excited using UV, with 488 and 561 lasers, and fluorescence channels were sequentially detected using the following band passes: UV: 420-480 nm (with attenuation), 488: 501-550 nm and 561: 576-676 nm.

NCCCC[C@H](NC(=O)[C@@H](NC(=O)[C@H](Cc1c[nH]c2ccccc12)NC(=O)[C@H](CCCCN)NC(=O)[C@H](CCCCN)NC(=O)[C@H](Cc1c[nH]c2ccccc12)NC(=O)[C@H](Cc1c[nH]c2ccccc12)NC(=O)[C@H](CCCCN)NC(=O)[C@@H](N)CCCCN)C(c1ccccc1)c1ccccc1)C(N)=O [LTX-315, K-K-W-W-K-K-W-Dip-K-NH2] (H-KKWWKKW[Dip]K-NH2)
Tumour growth after re-inoculation versus control animals ([1]; all 4 mice previously treated with LTX-315 1 mg, re-inoculated 6 weeks after treatment, P<0.006): Significant inhibition | Mice with complete tumour regression after re-inoculation ([1]; of 4 mice previously treated with 1 mg): 3 | Animals with relapse after re-inoculation ([1]; of 4 mice, 3 weeks later): 1 | Resistance index (RI), MCF-7/mdr (MCF-7/mdr): 1.12 | Tumour growth in irradiated recipients of splenocytes from LTX-315-cured donors versus naive donors [2]: Inhibition of tumour growth was observed | Cytochrome-C in the supernatant compared to untreated control cells (A375 cells [3]): three times more | Internalization of Pacific Blue-labeled peptide (A375 cells [4]): rapidly penetrated the plasma membrane
